The values that follow come from ChEMBL document CHEMBL6115029, “Discovery of Daraxonrasib (RMC-6236), a Potent and Orally Bioavailable RAS(ON) Multi-selective, Noncovalent Tri-complex Inhibitor for the Treatment of Patients with Multiple RAS-Addicted Cancers” (J Med Chem, 2025).

Data set [1] can be described thus: In vivo inhibition of MAPK signaling pathway in female BALB/c nude mouse xenografted with human NCI-H441 cells harboring wildtype KRAS/KRAS G12V mutant assessed as decrease in DUSP6 mRNA expression in tumor at 100 mg/kg, po administered as single dose and measured after 2 hrs by qPCR analysis relative to control. Format: functional. (Xenograft models place foreign cells or tissue in a host animal.)

The nature of data set [2]: Inhibition of 6His-tagged KRAS G12D mutant(1 to 169 residues)/GST-tagged GMPPNP-bound BRAF RBD (155 to 229 reisudes)/Cyclophilin A (unknown origin) tri-complex protein-protein interaction incubated for 3 hrs by TR-FERT based disruption assay. The arrangement: species or system Homo sapiens.
A short description of data set [3]: Apparent permeability across apical to basolateral side in human Caco-2 cells at 5 uM incubated for 2 hrs by LC-MS/MS analysis. Format: ADME, cell-based.
The nature of data set [4]: Lipophilicity, logD of compound at pH 7.4 by Agilent 1290 II uPLC analysis. The conditions noted are these: buffer. The format is physicochemical.
Another data set deals with NCI-H358. Description: Cytotoxicity against human NCI-H358 cells harboring KRAS G12C mutant cultured as 2D cells assessed as reduction in cell viability incubated for 120 hrs by CellTiter-Glo luminescence assay. The format is functional, cell-based. The settings on record: NCI-H358, 120 h.
For a further data set, the system named is NCI-H1975. Description: Cytotoxicity against human NCI-H1975 cells harboring wildtype KRAS cultured as 2D cells assessed as reduction in cell viability incubated for 120 hrs by CellTiter-Glo luminescence assay. Format: functional, cell-based. The settings on record: NCI-H1975, 120 h. Background: In ATP-based viability assays light output follows the ATP content of the culture.

The next data set has as its system A-375. Kind of data set: Cytotoxicity against human A-375 cells assessed as reduction in cell viability incubated for 120 hrs by CellTiter-Glo luminescence assay. Format: functional, cell-based. The conditions noted are these: A-375, 120 h.
Data set [5] can be described thus: Kinetic solubility of compound in PBS at pH 7.4 measured after 5 hrs by UV analysis. Format: physicochemical. The conditions noted are these: read-out: Kinetic_solubility.
The next data set relates to CAPAN-1. Description: Cytotoxicity against human CAPAN-1 cells harboring KRAS G12V mutant cultured as 2D cells assessed as reduction in cell viability incubated for 120 hrs by CellTiter-Glo luminescence assay. The settings on record: CAPAN-1, 120 h. Format: functional, cell-based.
The nature of data set [6]: Half-life in female BALB/c mouse at 1 mg/kg, iv measured after 24 hrs by LC-MS/MS analysis. The format is ADME, organism-based. The conditions noted are these: in vivo.
A short description of data set [7]: Clearance in female BALB/c mouse at 1 mg/kg, iv measured after 24 hrs by LC-MS/MS analysis. Format: ADME, organism-based. The conditions noted are these: in vivo.
For data set [8], the target named is Peptidyl-prolyl cis-trans isomerase A (Homo sapiens, UniProt P62937). Kind of data set: Binding affinity to Avi-tagged Cyclophilin A (unknown origin) assessed as dissociation constant by SPR analysis. A general note: Surface plasmon resonance follows binding to a sensor surface in real time, without labels.
Data set [9] in a line: Inhibition of ERK1/2 phosphorylation in human CAPAN-1 cells harboring KRAS G12V mutant incubated for 4 hrs by AlphaLISA assay. Format: cell-based. The conditions noted are these: CAPAN-1, 4 h.
Data set [10] is described as follows: Inhibition of ERK1/2 phosphorylation in human NCI-H358 cells harboring KRAS G12C mutant incubated for 4 hrs by AlphaLISA assay. The format is cell-based. The conditions noted are these: NCI-H358, 4 h.
A short description of data set [11]: Inhibition of ERK1/2 phosphorylation in human ASPC1 cells harboring KRAS G12D mutant incubated for 4 hrs by AlphaLISA assay. Format: cell-based. The settings on record: ASPC1, 4 h.
Data set [12] in a line: Inhibition of 6His-tagged wildtype KRAS (1 to 169 residues)/GST-tagged GMPPNP-bound BRAF RBD (155 to 229 reisudes)/Cyclophilin A (unknown origin) tri-complex protein-protein interaction incubated for 3 hrs by TR-FERT based disruption assay. More on the design: species or system Homo sapiens.
The nature of data set [13]: Inhibition of 6His-tagged KRAS G12C mutant(1 to 169 residues)/GST-tagged GMPPNP-bound BRAF RBD (155 to 229 reisudes)/Cyclophilin A (unknown origin) tri-complex protein-protein interaction incubated for 3 hrs by TR-FERT based disruption assay. More on the design: species or system Homo sapiens.
A short description of data set [14]: In vivo inhibition of MAPK signaling pathway in female BALB/c nude mouse xenografted with human NCI-H441 cells harboring wildtype KRAS/KRAS G12V mutant assessed as decrease in DUSP6 mRNA expression in tumor at 200 mg/kg, po administered as single dose and measured after 2 hrs by qPCR analysis relative to control. Format: functional.
Data set [15] in a line: Metabolic stability in mouse liver microsomes assessed as half-life at 2 uM measured upto 60 mins in presence of NADPH by LC-MS/MS analysis. The format is ADME, Microsome.
The next data set has as its system ASPC1. Description: Cytotoxicity against human ASPC1 cells harboring KRAS G12D mutant cultured as 2D cells assessed as reduction in cell viability incubated for 120 hrs by CellTiter-Glo luminescence assay. The settings on record: ASPC1, 120 h. The format is functional, cell-based.
Data set [16] is described as follows: Oral bioavailability in female BALB/c mouse at 10 mg/kg measured after 24 hrs by LC-MS/MS analysis. Format: ADME, organism-based. The settings on record: in vivo.
Data set [17] can be described thus: Efflux ratio of apparent permeability in human Caco-2 cells at 5 uM incubated for 2 hrs by LC-MS/MS analysis. Format: ADME, cell-based.
Data set [18] can be described thus: Kinetic solubility of compound in PBS at pH 5.0 measured after 5 hrs by UV analysis. Format: physicochemical. The conditions noted are these: read-out: Kinetic_solubility.
A short description of data set [19]: Inhibition of 6His-tagged KRAS G12V mutant(1 to 169 residues)/GST-tagged GMPPNP-bound BRAF RBD (155 to 229 reisudes)/Cyclophilin A (unknown origin) tri-complex protein-protein interaction incubated for 3 hrs by TR-FERT based disruption assay. The arrangement: species or system Homo sapiens.
Data set [20] in a line: Binding affinity to Cyclophilin A/Avi-tagged KRAS G12D mutant (1 to 169 residues) (unknown origin) assessed as dissociation constant by SPR analysis. The arrangement: species or system Homo sapiens.
Data set [21] is described as follows: Inhibition of 6His-tagged KRAS G61H mutant(1 to 169 residues)/GST-tagged GMPPNP-bound BRAF RBD (155 to 229 reisudes)/Cyclophilin A (unknown origin) tri-complex protein-protein interaction incubated for 3 hrs by TR-FERT based disruption assay. The arrangement: species or system Homo sapiens.
Data set [22] can be described thus: Inhibition of 6His-tagged wildtype HRAS (1 to 169 residues)/GST-tagged GMPPNP-bound BRAF RBD (155 to 229 reisudes)/Cyclophilin A (unknown origin) tri-complex protein-protein interaction incubated for 3 hrs by TR-FERT based disruption assay. More on the design: species or system Homo sapiens.
A short description of data set [23]: Binding affinity to Cyclophilin A/Avi-tagged KRAS G12C mutant (1 to 169 residues) (unknown origin) assessed as dissociation constant by SPR analysis. The arrangement: species or system Homo sapiens.
The nature of data set [24]: Inhibition of 6His-tagged NRAS G61K mutant(1 to 169 residues)/GST-tagged GMPPNP-bound BRAF RBD (155 to 229 reisudes)/Cyclophilin A (unknown origin) tri-complex protein-protein interaction incubated for 3 hrs by TR-FERT based disruption assay. The arrangement: species or system Homo sapiens.
A short description of data set [25]: Inhibition of 6His-tagged KRAS G12R mutant(1 to 169 residues)/GST-tagged GMPPNP-bound BRAF RBD (155 to 229 reisudes)/Cyclophilin A (unknown origin) tri-complex protein-protein interaction incubated for 3 hrs by TR-FERT based disruption assay. The arrangement: species or system Homo sapiens.
The nature of data set [26]: Inhibition of 6His-tagged wildtype NRAS (1 to 169 residues)/GST-tagged GMPPNP-bound BRAF RBD (155 to 229 reisudes)/Cyclophilin A (unknown origin) tri-complex protein-protein interaction incubated for 3 hrs by TR-FERT based disruption assay. The arrangement: species or system Homo sapiens.
Data set [27] can be described thus: Binding affinity to Cyclophilin A/Avi-tagged KRAS G12V mutant (1 to 169 residues) (unknown origin) assessed as dissociation constant by SPR analysis. More on the design: species or system Homo sapiens.

In brackets after ≈: the same amount, converted by molar mass.

Peptidyl-prolyl cis-trans isomerase A, sequence (P62937 whole entry): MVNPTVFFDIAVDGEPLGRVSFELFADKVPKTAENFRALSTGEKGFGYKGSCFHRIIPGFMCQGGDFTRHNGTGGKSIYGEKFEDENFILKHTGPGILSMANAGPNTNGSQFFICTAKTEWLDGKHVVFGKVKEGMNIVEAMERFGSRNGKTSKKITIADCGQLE

What is called inhibition in vivo is the relative decrease from the control value, in per cent. The term IC50 denotes the concentration that inhibits the measured activity by half. The Papp A→B is how fast a substance crosses the layer from the apical side. By logD is commonly meant the decadic logarithm of the distribution of all forms, ionised or not, between an organic phase and buffer at a given pH. High values mean higher lipophilicity, low ones lower lipophilicity. One may read the EC50 as the concentration that produces a half-maximal response. Usually half-life stands for the time needed for the level to fall by half in the phase considered. For orientation: clearance means a measure of how efficiently the substance is removed, as volume per time. A lower clearance goes with a low capacity for elimination. As a reminder, the Kd is the equilibrium constant for the complex coming apart. One may read the bioavailability as the share of a dose that reaches the circulation, judged against a reference dose that is usually intravenous. Read a low bioavailability as poor availability. Broadly, the efflux ratio is the permeability from basolateral to apical divided by that in the opposite direction, in the common usage. With `CCn1c(-c2cccnc2[C@H](C)OC)c2c3cc(ccc31)-c1csc(n1)C[C@H](NC(=O)[C@H](C(C)C)N(C)C(=O)N1CC(OC)C1)C(=O)N1CCC[C@H](N1)C(=O)OCC(C)(C)C2`, the inhibition in vivo at 100 mg/kg in [1] was 87%. For the same molecule, the half-maximal inhibitory concentration (IC50) worked out at 1160 nM in [2], 200 nM in data set [12], 78 nM in data set [13] and 76 nM in the data set on ASPC1. Also, the apparent permeability from apical to basolateral (Papp A→B) at 2 h, 5 µM in [3] is 0.6 ×10⁻⁶ cm/s. Also, in data set [4], the logD was 4.8. For the same molecule, the half-maximal effective concentration (EC50) with NCI-H358 is 7 nM; in the data set on NCI-H1975, 22 nM; with A-375 it was above 10000 nM; in the data set on CAPAN-1, 16 nM; in [9], 3 nM; in data set [10], 5 nM. In data set [11], this molecule showed a concentration giving a half-maximal response (EC50) of 61 nM. Further, the solubility kinetic at 5 h in data set [5] is 12 µM (≈ 10.3 µg/mL). This molecule also had a half-life in data set [6] of 90 min. Also, in [7], the clearance is 33.3 mL/min/kg. For the same molecule, the equilibrium dissociation constant (Kd) in data set [8] was found to be 283 nM. Also, in data set [14], the inhibition in vivo at 200 mg/kg stood at 94%. Further, in [15], the half-life at 2 µM is 19 min. This molecule also had a bioavailability in [16] of 17%. In addition, the efflux ratio at 2 h, 5 µM in data set [17] was 9.6.

Consider `CCn1c(-c2cccnc2[C@H](C)OC)c2c3cc(ccc31)-c1csc(n1)C[C@H](NC(=O)[C@H]1C[C@@H]1C)C(=O)N1CCC[C@H](N1)C(=O)OCC(C)(C)C2`, for which the concentration for half-maximal inhibition (IC50) was 927 nM in data set [2], 344 nM in data set [12], 117 nM in [13] and 165 nM in [19]. Also, in [3], the Papp A→B at 2 h, 5 µM is 10.7 ×10⁻⁶ cm/s. In addition, the logD in data set [4] turned out to be 4.7. For the same molecule, the concentration for a half-maximal effect (EC50) in the data set with NCI-H358 came to 83 nM; in the data set on NCI-H1975 it was 69 nM; in the data set with A-375, 8370 nM; in the data set with CAPAN-1 it was 129 nM; in data set [9] it was 25 nM; in data set [10] it was 68 nM. The 50% effective concentration (EC50) in [11] turned out to be 818 nM; in the data set with ASPC1 it was 236 nM. The results for the solubility kinetic at 5 h in [5] and in [18] were 3 µM (≈ 2.14 µg/mL) and below 2 µM, respectively. The half-life in [6] is 54 min. Also, in data set [7], the clearance was 10 mL/min/kg. The Kd in data set [8] was found to be 1760 nM. In addition, the half-life at 2 µM in data set [15] was 53 min. The bioavailability in [16] was 75%. For the same molecule, the efflux ratio at 2 h, 5 µM in data set [17] was determined as 1.

For the molecule `CCn1c(-c2cccnc2[C@H](C)OC)c2c3cc(ccc31)-c1cccc(c1)C[C@H](NC(=O)[C@H](C(C)C)N(C)C(=O)[C@H]1CCN(C(C)=O)C1)C(=O)N1CCC[C@H](N1)C(=O)OCC(C)(C)C2`, the concentration for half-maximal inhibition (IC50) in data set [2] worked out at 12900 nM; in data set [21], 1300 nM; in data set [22], 3500 nM; in [12], 5100 nM; in data set [13], 1600 nM; in data set [24], 3500 nM. The IC50 in data set [19] amounted to 4400 nM; in [25], 8400 nM; in data set [26] it was 3200 nM. Besides, the EC50 with NCI-H358 stood at 1090 nM; with NCI-H1975 it was 1140 nM; with CAPAN-1 it was 948 nM; with ASPC1 it was 1860 nM. The Kd was found to be 3550 nM in data set [20], 897 nM in data set [8], 2050 nM in [23] and 5830 nM in data set [27].
